From ChEMBL document CHEMBL2406925, “Confirmation of quinolone-induced formation of gyrase-DNA conjugates using AFM” (Bioorg Med Chem Lett, 2013)
Calls of active or inactive are those of the source. The rule behind the calls is not given here.

Experiments:
Escherichia coli [1] = assay: Stabilization of reversible Escherichia coli DNA gyrase-pBR322 DNA complex at 20 uM after 15 mins by AFM image analysis
Escherichia coli [2] = assay: Induction of Escherichia coli DNA gyrase-mediated pBR322 DNA cleavage at 5 to 20 uM after 30 mins by agarose gel electrophoresis

With `CCn1cc(C(=O)O)c(=O)c2cc(F)c(N3CCNCC3)cc21` the Activity (Escherichia coli [1]) was “Active” and the Activity (Escherichia coli [2]) was “Active”.
